Reference: patent US8541588B2, “Sulfonamide derivatives” (Pfizer Limited, priority 2009, dated 2013)

What follows are compounds tested against T1, Nav1.7 (or SCN9A) channel; HEK cells stably transfected with hSCN9A (Homo sapiens, UniProt Q15858) (assay: Nav1.7 block, PatchXpress 7000 automated whole-cell voltage clamp, estimated IC50 (EIC50)). Settings: PatchXpress platform; hSCN9A HEK cells held at V1/2 of inactivation; estimated IC50.
T1 construct: expressed in transfected cells
T1 sequence (Q15858 whole entry): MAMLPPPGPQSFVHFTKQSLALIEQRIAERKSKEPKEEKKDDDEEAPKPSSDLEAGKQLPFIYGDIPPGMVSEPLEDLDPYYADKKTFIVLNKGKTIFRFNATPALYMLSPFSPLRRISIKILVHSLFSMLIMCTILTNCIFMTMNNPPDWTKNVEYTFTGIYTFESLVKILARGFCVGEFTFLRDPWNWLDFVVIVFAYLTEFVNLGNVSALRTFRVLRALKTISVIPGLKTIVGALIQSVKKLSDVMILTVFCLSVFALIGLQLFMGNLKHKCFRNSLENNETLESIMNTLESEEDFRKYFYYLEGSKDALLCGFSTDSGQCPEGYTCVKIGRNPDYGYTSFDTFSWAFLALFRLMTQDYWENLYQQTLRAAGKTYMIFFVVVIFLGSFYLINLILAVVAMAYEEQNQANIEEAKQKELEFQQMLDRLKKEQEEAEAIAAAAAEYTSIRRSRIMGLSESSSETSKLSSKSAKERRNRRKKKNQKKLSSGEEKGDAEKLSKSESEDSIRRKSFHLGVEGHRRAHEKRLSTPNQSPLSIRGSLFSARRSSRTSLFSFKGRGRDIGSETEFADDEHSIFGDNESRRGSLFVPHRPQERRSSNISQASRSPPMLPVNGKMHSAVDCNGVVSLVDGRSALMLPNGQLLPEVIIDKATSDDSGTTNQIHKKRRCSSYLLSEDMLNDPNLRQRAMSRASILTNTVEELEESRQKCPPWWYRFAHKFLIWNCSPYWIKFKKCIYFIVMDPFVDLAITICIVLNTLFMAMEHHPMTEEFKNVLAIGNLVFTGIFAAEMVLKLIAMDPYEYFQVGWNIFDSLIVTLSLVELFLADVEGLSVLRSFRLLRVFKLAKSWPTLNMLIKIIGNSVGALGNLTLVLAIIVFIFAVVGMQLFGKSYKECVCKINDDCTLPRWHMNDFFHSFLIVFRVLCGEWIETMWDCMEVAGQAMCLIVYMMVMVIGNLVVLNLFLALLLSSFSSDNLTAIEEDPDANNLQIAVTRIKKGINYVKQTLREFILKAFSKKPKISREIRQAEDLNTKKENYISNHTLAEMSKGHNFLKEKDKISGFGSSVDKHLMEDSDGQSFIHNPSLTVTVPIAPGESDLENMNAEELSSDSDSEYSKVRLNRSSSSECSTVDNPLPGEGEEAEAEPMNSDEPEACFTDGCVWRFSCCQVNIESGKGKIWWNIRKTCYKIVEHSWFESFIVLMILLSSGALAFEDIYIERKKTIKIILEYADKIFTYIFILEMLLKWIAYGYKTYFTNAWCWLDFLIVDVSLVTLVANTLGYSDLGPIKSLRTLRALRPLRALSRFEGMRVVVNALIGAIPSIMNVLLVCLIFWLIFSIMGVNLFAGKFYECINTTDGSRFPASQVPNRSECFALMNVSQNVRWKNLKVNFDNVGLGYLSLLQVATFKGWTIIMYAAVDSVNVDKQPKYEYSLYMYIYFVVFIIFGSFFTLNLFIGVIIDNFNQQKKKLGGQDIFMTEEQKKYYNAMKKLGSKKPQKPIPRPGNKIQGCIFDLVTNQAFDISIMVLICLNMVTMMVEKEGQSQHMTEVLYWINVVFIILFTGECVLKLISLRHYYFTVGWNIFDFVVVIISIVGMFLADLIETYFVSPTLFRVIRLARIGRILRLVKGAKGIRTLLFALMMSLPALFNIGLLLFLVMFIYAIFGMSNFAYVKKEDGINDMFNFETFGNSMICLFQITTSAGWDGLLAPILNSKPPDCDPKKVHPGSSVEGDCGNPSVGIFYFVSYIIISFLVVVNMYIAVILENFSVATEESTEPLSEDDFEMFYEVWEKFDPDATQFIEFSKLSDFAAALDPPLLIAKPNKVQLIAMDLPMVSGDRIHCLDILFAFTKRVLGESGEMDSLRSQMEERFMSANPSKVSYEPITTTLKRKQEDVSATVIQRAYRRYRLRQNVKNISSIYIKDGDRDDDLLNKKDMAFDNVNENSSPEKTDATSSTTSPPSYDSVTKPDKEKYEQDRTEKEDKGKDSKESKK
Type: cell-based
`O=S(=O)(Nc1ncns1)c1cc(F)c(Oc2ccn(Cc3ccc(Cl)cc3)n2)c(F)c1` [Example 265, 4-{[1-(4-chlorobenzyl)-1H-pyrazol-3-yl]oxy}-3,5-difluoro-N-1,2,4-thiadiazol-5-ylbenzenesulfonamide] showed an IC50 of 38900 nM.
Work on `O=S(=O)(Nc1ncns1)c1cc(F)c(Oc2ccccc2-c2ccccc2)cc1F` [Example 266, 4-(biphenyl-2-yloxy)-2,5-difluoro-N-1,2,4-thiadiazol-5-ylbenzenesulfonamide] yielded an IC50 of 100 nM.
`O=S(=O)(Nc1ncns1)c1cc(F)c(Oc2ccccc2-c2ccccc2)cc1Cl` [Example 267, 4-(biphenyl-2-yloxy)-2-chloro-5-fluoro-N-1,2,4-thiadiazol-5-ylbenzenesulfonamide] was tested, and the IC50 was 190 nM.
For `N#Cc1cc(Oc2ccccc2-c2ccccc2)ccc1S(=O)(=O)Nc1ncns1` [Example 268, 4-(biphenyl-2-yloxy)-2-cyano-N-1,2,4-thiadiazol-5-ylbenzenesulfonamide], the IC50 was 3060 nM.
Compound `O=S(=O)(Nc1ncns1)c1ccc(Oc2ccccc2-c2ccccc2)c(F)c1F` [Example 269, 4-(biphenyl-2-yloxy)-2,3-difluoro-N-1,2,4-thiadiazol-5-ylbenzenesulfonamide] has an IC50 of 480 nM.
In the case of `O=S(=O)(Nc1ncns1)c1cc(Cl)c(Oc2ccccc2-c2ccccc2)cc1F` [Example 270, 4-(biphenyl-2-yloxy)-5-chloro-2-fluoro-N-1,2,4-thiadiazol-5-ylbenzenesulfonamide], the IC50 is reported as 30 nM.
In the case of `O=S(=O)(Nc1cscn1)c1ccc(Oc2ccccc2-c2ccccc2)c(F)c1` [Example 271, 4-(biphenyl-2-yloxy)-3-fluoro-N-thiazol-4-yl-benzenesulfonamide], the IC50 is reported as 1150 nM.
With `Cn1nccc1-c1cc(Cl)ccc1Oc1ccc(S(=O)(=O)Nc2cscn2)cc1F` [Example 272, 4-[4-chloro-2-(2-methyl-2H-pyrazol-3-yl)-phenoxy]-3-fluoro-N-thiazol-4-yl-benzenesulfonamide] the IC50 was 810 nM.
For `O=S(=O)(Nc1cscn1)c1ccc(Oc2ccc(-c3ccccc3)cc2)c(F)c1` [Example 273, 4-(biphenyl-4-yloxy)-3-fluoro-N-thiazol-4-yl-benzenesulfonamide], the IC50 was 2170 nM.
With `O=S(=O)(Nc1cscn1)c1ccc(Oc2cc(C(F)(F)F)nn2-c2ccccc2)c(F)c1` [Example 274, 3-fluoro-4-(2-phenyl-5-trifluoromethyl-2H-pyrazol-3-yloxy)-N-thiazol-4-yl-benzenesulfonamide] the IC50 was >10000 nM.
In the case of `Cn1nccc1-c1cc(Cl)ccc1Oc1ccc(S(=O)(=O)Nc2ncc(F)s2)cc1F` [Example 275, 4-[4-chloro-2-(2-methyl-2H-pyrazol-3-yl)-phenoxy]-3-fluoro-N-(5-fluoro-thiazol-2-yl)-benzenesulfonamide], the IC50 is reported as 70 nM.
Work on `O=S(=O)(Nc1nccs1)c1ccc(Oc2ccccc2-c2ccccc2)cc1` [Example 276, 4-(biphenyl-2-yloxy)-N-thiazol-2-yl-benzenesulfonamide] yielded an IC50 of 550 nM.
Work on `Cc1cc(Oc2ccc(S(=O)(=O)Nc3nccs3)cc2)n(-c2ccccc2)n1` [Example 277, 4-(5-methyl-2-phenyl-2H-pyrazol-3-yloxy)-N-thiazol-2-yl-benzenesulfonamide] yielded an IC50 of 1110 nM.
Work on `O=S(=O)(Nc1nccs1)c1ccc(Oc2ccccc2-c2ccccc2)nc1` [Example 278, 6-(biphenyl-2-yloxy)-pyridine-3-sulfonic acid thiazol-2-ylamide] yielded an IC50 of 2660 nM.
For `CC(C)(C)n1nc(C(F)(F)F)cc1-c1ccc(Oc2ccc(S(=O)(=O)Nc3nccs3)cc2C#N)cc1` [Example 279, 4-[4-(2-tertbutyl-5-trifluoromethyl-2H-pyrazol-3-yl)-phenoxy]-3-cyano-N-thiazol-2-yl-benzenesulfonamide], the IC50 was 70 nM.
Work on `CCn1nc(C(F)(F)F)cc1-c1ccc(Oc2ccc(S(=O)(=O)Nc3nccs3)cc2C#N)cc1` [Example 280, 3-cyano-4-[4-(2-ethyl-5-trifluoromethyl-2H-pyrazol-3-yl)-phenoxy]-N-thiazol-2-yl-benzenesulfonamide] yielded an IC50 of 90 nM.
